Assay results taken from PubChem BioAssay (NCI).
“And” between values parts separate entries of the source, which are not always exact repeats. Identical values can stand only once.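 Protocol summary: plate cells (96-well), add compound at 5 concentrations, incubate 48 h, interpolate endpoints linearly. The concentration for 50% growth inhibition is given as GI50. At the TGI there is no net growth.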

What was measured:
Assay in all cases: inhibition of tumour cell growth, NCI panel, 48 h
[1] = test system: UO-31 renal
[2] = test system: HL-60(TB) leukemia
[3] = test system: BT-549 breast
[4] = test system: SF-295 CNS
[5] = test system: SW-620 colon
[6] = test system: SK-MEL-28 melanoma
[7] = test system: HS 578T breast
[8] = test system: SK-OV-3 ovarian
[9] = test system: OVCAR-5 ovarian
[10] = test system: SF-268 CNS
[11] = test system: OVCAR-3 ovarian
[12] = test system: UACC-62 melanoma
[13] = test system: SNB-75 CNS
[14] = test system: A498 renal
[15] = test system: LOX IMVI melanoma
[16] = test system: MDA-N
[17] = test system: K-562 leukemia
[18] = test system: EKVX NSCLC
[19] = test system: HCT-116 colon
[20] = test system: HCC-2998 colon
[21] = test system: M14 melanoma
[22] = test system: SNB-19 CNS
[23] = test system: A549 NSCLC
[24] = test system: OVCAR-4 ovarian
[25] = test system: HCT-15 colon
[26] = test system: HT29 colon
[27] = test system: T-47D breast
[28] = test system: NCI-H23 lung
[29] = test system: MDA-MB-231 breast
[30] = test system: NCI-H460 lung
[31] = test system: U251 CNS
[32] = test system: NCI/ADR-RES ovarian
[33] = test system: SK-MEL-5 melanoma
[34] = test system: UACC-257 melanoma
[35] = test system: HOP-62 NSCLC
[36] = test system: SF-539 CNS
[37] = test system: TK-10 renal
[38] = test system: CCRF-CEM leukemia
[39] = test system: PC-3 prostate
[40] = test system: SK-MEL-2 melanoma
[41] = test system: MOLT-4 leukemia
[42] = test system: KM12 colon
[43] = test system: MCF7 breast
[44] = test system: MDA-MB-435
[45] = test system: ACHN renal
[46] = test system: RXF 393 renal
[47] = test system: OVCAR-8 ovarian
[48] = test system: SN12C renal
[49] = test system: NCI-H226 lung
[50] = test system: IGROV1 ovarian
[51] = test system: CAKI-1 renal
[52] = test system: MALME-3M melanoma
[53] = test system: COLO 205 colon
[54] = test system: NCI-H522 lung
[55] = test system: HOP-92 NSCLC
[56] = test system: 786-0 renal
[57] = test system: RPMI-8226 leukemia
[58] = test system: SR leukemia
[59] = test system: DU-145 prostate

Structure (SMILES): CCCCCCNCCCNc1c2ccccc2nc2cccc([N+](=O)[O-])c12
- GI50 [1]: 145 nM
- TGI [1]: 393 nM and 331 nM
- GI50 [2]: 21.6 nM
- GI50 [3]: 212 nM
- TGI [3]: 271 nM and 448 nM
- GI50 [4]: 26.3 nM
- TGI [4]: 59 nM and 422 nM
- TGI [5]: 115 nM and 734 nM
- GI50 [6]: 53.4 nM
- TGI [6]: 323 nM and 375 nM
- TGI [7]: 210 nM and 434 nM
- TGI [8]: 278 nM and 390 nM
- GI50 [9]: 20.7 nM
- TGI [9]: 194 nM and 151 nM
- GI50 [10]: 38 nM
- TGI [10]: 52.2 nM and 405 nM
- GI50 [11]: 39.5 nM
- TGI [11]: 47.7 nM and 206 nM
- GI50 [12]: 18.1 nM
- TGI [12]: 131 nM and 61.8 nM
- GI50 [13]: 65 nM
- TGI [13]: 181 nM and 237 nM
- GI50 [14]: 93.1 nM
- TGI [14]: 321 nM and 327 nM
- GI50 [15]: 44 nM
- TGI [15]: 81.8 nM and 295 nM
- TGI [16]: 25.2 nM and 103 nM
- TGI [17]: 21.2 nM
- GI50 [18]: 185 nM
- TGI [18]: 120 nM and 812 nM
- TGI [19]: 1360 nM
- TGI [20]: 21 nM
- TGI [21]: 24.7 nM and 20.5 nM
- GI50 [22]: 17 nM
- TGI [23]: 113 nM and 131 nM
- GI50 [24]: 11.5 nM
- TGI [24]: 41.9 nM and 48.6 nM
- TGI [25]: > 100000 nM
- TGI [26]: 26.8 nM and 124 nM
- GI50 [27]: 50.3 nM
- TGI [27]: 288 nM and 457 nM
- GI50 [28]: 15.9 nM
- TGI [28]: 25.3 nM and 59.9 nM
- GI50 [29]: 15.1 nM
- TGI [29]: 93.3 nM and 221 nM
- TGI [30]: 21.8 nM
- TGI [31]: 96.6 nM and 116 nM
- GI50 [32]: 540 nM
- TGI [32]: 1660 nM and 2800 nM
- TGI [33]: 25.8 nM and 24.3 nM
- GI50 [34]: 59 nM
- TGI [34]: 252 nM and 261 nM
- TGI [35]: 77.3 nM and 37.4 nM
- GI50 [36]: 50.7 nM
- TGI [36]: 307 nM and 225 nM
- GI50 [37]: 70.5 nM
- TGI [37]: 787 nM and 512 nM
- GI50 [38]: 27.7 nM
- TGI [38]: 170 nM and 182 nM
- TGI [39]: 87.8 nM and 393 nM
- TGI [40]: 33.1 nM and 23.1 nM
- TGI [41]: 85.4 nM and 64.1 nM
- TGI [42]: 35.2 nM and 33.5 nM
- TGI [43]: 112 nM and 103 nM
- TGI [44]: 22.6 nM and 23.4 nM
- GI50 [45]: 15.1 nM
- TGI [45]: 44.6 nM and 85.8 nM
- TGI [46]: 31.2 nM
- TGI [47]: 136 nM and 170 nM
- TGI [48]: 120 nM
- GI50 [49]: 22.8 nM
- TGI [49]: 274 nM and 148 nM
- GI50 [50]: 25.2 nM
- TGI [50]: 71.3 nM and 186 nM
- TGI [51]: 271 nM
- GI50 [52]: 16.8 nM
- TGI [52]: 62.8 nM and 57.2 nM
- TGI [53]: 14.9 nM and 41.5 nM
- TGI [54]: 42.1 nM
- TGI [55]: 79.2 nM and 69.3 nM
- GI50 [56]: 23.9 nM
- TGI [56]: 41.6 nM and 193 nM

Structure (SMILES): CC1=CC(=O)/C(=C/n2c(=S)[nH]c3ccc([N+](=O)[O-])cc32)C(=O)O1
- TGI [1]: > 100000 nM
- TGI [2]: 4930 nM
- TGI [3]: > 100000 nM
- TGI [4]: > 100000 nM
- TGI [5]: > 100000 nM
- TGI [6]: > 100000 nM
- TGI [7]: > 100000 nM
- TGI [8]: > 100000 nM
- TGI [9]: > 100000 nM
- TGI [10]: > 100000 nM
- TGI [11]: > 100000 nM
- TGI [12]: > 100000 nM
- TGI [13]: > 100000 nM
- TGI [57]: > 100000 nM
- TGI [15]: > 100000 nM
- TGI [16]: > 100000 nM
- TGI [17]: > 100000 nM
- TGI [18]: > 100000 nM
- TGI [19]: > 100000 nM
- TGI [20]: > 100000 nM
- TGI [21]: > 100000 nM
- TGI [22]: > 100000 nM
- TGI [23]: > 100000 nM
- TGI [24]: > 100000 nM
- TGI [25]: > 100000 nM
- TGI [26]: > 100000 nM
- TGI [27]: > 100000 nM
- TGI [28]: > 100000 nM
- TGI [29]: > 100000 nM
- TGI [30]: > 100000 nM
- TGI [31]: > 100000 nM
- TGI [32]: > 100000 nM
- TGI [33]: > 100000 nM
- TGI [34]: > 100000 nM
- TGI [35]: > 100000 nM
- TGI [36]: > 100000 nM
- TGI [37]: > 100000 nM
- TGI [38]: > 100000 nM
- TGI [39]: > 100000 nM
- TGI [40]: > 100000 nM
- TGI [41]: > 100000 nM
- TGI [42]: > 100000 nM
- TGI [43]: > 100000 nM
- TGI [44]: > 100000 nM
- TGI [45]: > 100000 nM
- TGI [58]: > 100000 nM
- TGI [46]: > 100000 nM
- TGI [47]: > 100000 nM
- TGI [48]: > 100000 nM
- TGI [59]: > 100000 nM
- TGI [49]: > 100000 nM
- TGI [50]: > 100000 nM
- TGI [53]: > 100000 nM
- TGI [54]: > 100000 nM
- TGI [55]: > 100000 nM
- TGI [56]: > 100000 nM

Structure (SMILES): CC(C)N1[C@@H]2CCCC[C@H]2N(C(C)C)P1(=O)C(=O)/C=C/c1ccccc1
- TGI [1]: 3130 nM
- TGI [2]: 4840 nM
- TGI [3]: 14500 nM
- TGI [4]: 23400 nM
- TGI [6]: 8870 nM
- TGI [7]: 4940 nM
- TGI [9]: 6660 nM
- TGI [10]: 7330 nM
- TGI [11]: 5740 nM
- TGI [12]: 9020 nM
- TGI [57]: 9320 nM
- TGI [14]: 16900 nM
- TGI [15]: 4550 nM
- TGI [16]: 3820 nM
- TGI [17]: > 100000 nM
- TGI [18]: 13800 nM
- TGI [19]: 3730 nM
- TGI [20]: 5330 nM
- TGI [21]: 5490 nM
- TGI [22]: 18300 nM
- TGI [23]: 12400 nM
- TGI [24]: 3390 nM
- TGI [25]: 4140 nM
- TGI [26]: 8030 nM
- TGI [28]: 6420 nM
- TGI [29]: 8740 nM
- TGI [30]: 10300 nM
- TGI [31]: 16500 nM
- TGI [32]: 4810 nM
- TGI [33]: 3440 nM
- TGI [34]: 13500 nM
- TGI [35]: 13700 nM
- TGI [36]: 6340 nM
- TGI [37]: 12900 nM
- TGI [39]: 15200 nM
- TGI [40]: 8170 nM
- TGI [41]: 16100 nM
- TGI [42]: 10200 nM
- TGI [43]: 59900 nM
- TGI [44]: 3740 nM
- TGI [45]: 8620 nM
- TGI [58]: 8270 nM
- TGI [46]: 3460 nM
- TGI [47]: 3460 nM
- TGI [48]: 3960 nM
- TGI [59]: 4940 nM
- TGI [49]: 24600 nM
- TGI [50]: 4370 nM
- TGI [51]: 7310 nM
- TGI [52]: 2330 nM
- TGI [53]: 5050 nM
- TGI [54]: 3260 nM
- TGI [55]: 6530 nM
- TGI [56]: 3360 nM
